Source: patent publication US5242946A, “Treating herpes Viral infections” (Bio-Mega, Inc., priority 1988, dated 1993)

Key:
[1] = biological target: HSV-1 ribonucleotide reductase (Human alphaherpesvirus 1 strain 17, UniProt P08543+P10224); test: Inhibition of HSV-1 ribonucleotide reductase (reduction of CDP); assay type: biochemical, herpes simplex virus (type 1), strain F; settings: for selective inhibition of the viral ribonucleotide reductase over the cellular ribonucleotide reductase: HSV-1 versus hamster 96-V-2(600) ribonucleotide reductase
[2] = biological target: T1, Hamster 96-V-2(600) ribonucleotide reductase (Cricetulus griseus, UniProt G3I2K8+G3I3B7); test: Inhibition of hamster 96-V-2(600) ribonucleotide reductase (reduction of CDP); assay type: biochemical, Chinese hamster; settings: partially purified enzyme 40 μg, in the presence of adenosine triphosphate (4 mM) and magnesium chloride (11.5 mM)
T1 construct: overproducing strain; endogenous in cells; host or cells: 96-V-2(600), overproducing strain of a Chinese hamster lung cell line (partially purified)
Description: Hamster 96-V-2(600) ribonucleotide reductase (partially purified) was obtained from an overproducting strain of a Chinese hamster lung cell line as described by W. H. Lewis and P. R. Scinivasan, Mol. Cell Biol., 3, 1053 (1983).
Samples of the HSV-1 ribonucleotide reductase (65 μg with a specific activity of 26 units per mg) were mixed with increasing concentrations of the test compound, i.e. the naphthalene noted in the title of this example, in a series of tubes. Ribonucleotide reductase activity was assayed by monitoring the reduction of cytidine diphosphate (CDP) as described by Cohen et al., supra. The standard reaction mixture, in a final volume of 60 μl, contained: 50 mM, N-2-hydroxyethylpiperazine-N'-2-ethanesulfonic acid (pH 7.8); 4 mM NaF, 30 mM DL-dithiothreitol (DTT); 1 mM bacitracin, 54 μM CDP and 0.25 μCi of [^3 H]CDP. After 30 minutes of incubation at 37° C., the reaction was stopped by immersing the tube in boiling water for 4 minutes. The precipitate was removed by centrifugation. Nucleotides in the supernatant were converted to nucleosides by enzymatic hydrolysis. The deoxyribonucleosides were subsequently separated from the ribonucleosides by ascending polyethyleneimine-celulose chromatography. […] The results, shown in FIG. 1, are expressed as a percentage of the activity obtained in the controls.

Chain of HSV-1 ribonucleotide reductase (P10224 whole entry): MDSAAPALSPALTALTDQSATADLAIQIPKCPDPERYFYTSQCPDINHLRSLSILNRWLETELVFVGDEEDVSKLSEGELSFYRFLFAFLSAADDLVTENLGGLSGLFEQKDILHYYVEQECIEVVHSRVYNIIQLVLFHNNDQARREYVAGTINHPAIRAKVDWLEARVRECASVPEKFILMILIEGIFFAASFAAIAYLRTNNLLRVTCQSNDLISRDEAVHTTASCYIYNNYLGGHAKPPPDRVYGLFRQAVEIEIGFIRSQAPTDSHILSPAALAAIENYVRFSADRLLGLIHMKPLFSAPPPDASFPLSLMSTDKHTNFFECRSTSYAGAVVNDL
Chain of HSV-1 ribonucleotide reductase (P08543 whole entry): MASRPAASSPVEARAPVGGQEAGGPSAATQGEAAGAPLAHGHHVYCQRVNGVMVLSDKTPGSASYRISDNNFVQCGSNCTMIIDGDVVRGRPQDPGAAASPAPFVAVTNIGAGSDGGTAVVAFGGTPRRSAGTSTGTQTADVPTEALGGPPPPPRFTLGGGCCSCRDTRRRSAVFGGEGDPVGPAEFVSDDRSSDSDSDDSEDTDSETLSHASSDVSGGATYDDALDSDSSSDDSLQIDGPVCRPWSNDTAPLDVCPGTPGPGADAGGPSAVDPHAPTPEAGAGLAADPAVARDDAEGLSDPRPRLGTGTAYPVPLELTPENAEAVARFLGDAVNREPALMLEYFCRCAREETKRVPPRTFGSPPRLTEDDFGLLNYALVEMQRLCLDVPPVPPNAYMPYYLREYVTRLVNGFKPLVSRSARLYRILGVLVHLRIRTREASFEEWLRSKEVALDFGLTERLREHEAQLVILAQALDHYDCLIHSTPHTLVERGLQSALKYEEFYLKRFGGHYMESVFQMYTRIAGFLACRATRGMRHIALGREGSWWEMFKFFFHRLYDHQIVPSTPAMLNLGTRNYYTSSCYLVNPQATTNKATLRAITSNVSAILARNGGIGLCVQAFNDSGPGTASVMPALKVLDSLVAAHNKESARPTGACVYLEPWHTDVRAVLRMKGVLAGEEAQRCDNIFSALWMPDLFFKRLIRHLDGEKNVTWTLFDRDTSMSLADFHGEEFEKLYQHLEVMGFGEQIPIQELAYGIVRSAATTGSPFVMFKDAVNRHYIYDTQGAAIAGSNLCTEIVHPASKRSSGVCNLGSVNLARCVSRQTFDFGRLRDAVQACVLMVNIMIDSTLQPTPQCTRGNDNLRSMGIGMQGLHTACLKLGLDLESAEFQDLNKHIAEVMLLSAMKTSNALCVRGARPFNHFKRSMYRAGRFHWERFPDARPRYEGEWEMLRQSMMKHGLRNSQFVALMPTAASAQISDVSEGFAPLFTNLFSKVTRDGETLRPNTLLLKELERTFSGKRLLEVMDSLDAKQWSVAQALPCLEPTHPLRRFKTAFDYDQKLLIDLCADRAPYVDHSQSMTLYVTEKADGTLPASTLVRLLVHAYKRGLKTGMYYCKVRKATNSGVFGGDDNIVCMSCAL
T1 sequence (G3I3B7 entry or part of it): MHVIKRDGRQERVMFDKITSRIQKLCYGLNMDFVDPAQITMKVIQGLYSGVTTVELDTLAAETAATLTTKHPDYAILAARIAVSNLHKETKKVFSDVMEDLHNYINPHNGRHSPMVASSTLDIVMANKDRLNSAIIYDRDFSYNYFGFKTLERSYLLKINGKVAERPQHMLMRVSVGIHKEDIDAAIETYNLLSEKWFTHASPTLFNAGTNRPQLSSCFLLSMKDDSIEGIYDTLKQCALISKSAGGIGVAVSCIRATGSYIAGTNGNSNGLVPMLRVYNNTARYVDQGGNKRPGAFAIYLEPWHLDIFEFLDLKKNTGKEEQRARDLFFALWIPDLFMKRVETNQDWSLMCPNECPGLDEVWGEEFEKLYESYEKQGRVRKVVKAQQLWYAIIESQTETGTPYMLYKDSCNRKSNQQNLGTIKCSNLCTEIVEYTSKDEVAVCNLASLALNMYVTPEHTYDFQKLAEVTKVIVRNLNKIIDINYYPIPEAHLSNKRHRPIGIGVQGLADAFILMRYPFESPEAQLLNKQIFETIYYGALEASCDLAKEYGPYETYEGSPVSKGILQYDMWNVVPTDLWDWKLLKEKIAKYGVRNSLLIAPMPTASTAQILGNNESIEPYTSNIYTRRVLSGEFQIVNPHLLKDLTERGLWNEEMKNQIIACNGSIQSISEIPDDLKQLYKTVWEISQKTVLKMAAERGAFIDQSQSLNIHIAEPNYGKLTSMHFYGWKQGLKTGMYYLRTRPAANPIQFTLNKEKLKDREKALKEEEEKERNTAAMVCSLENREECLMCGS
T1 sequence (G3I2K8 entry or part of it): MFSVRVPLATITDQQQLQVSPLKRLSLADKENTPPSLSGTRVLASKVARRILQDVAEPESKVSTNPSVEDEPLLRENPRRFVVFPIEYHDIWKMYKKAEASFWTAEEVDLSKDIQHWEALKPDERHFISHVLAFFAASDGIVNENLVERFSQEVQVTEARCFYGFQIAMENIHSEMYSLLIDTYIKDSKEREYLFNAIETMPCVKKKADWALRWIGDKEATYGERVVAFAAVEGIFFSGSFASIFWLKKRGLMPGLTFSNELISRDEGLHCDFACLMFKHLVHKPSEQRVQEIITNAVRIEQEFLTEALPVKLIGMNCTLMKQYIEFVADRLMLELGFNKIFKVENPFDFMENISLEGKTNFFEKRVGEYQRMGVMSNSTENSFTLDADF

In the case of `COc1ccc2c(OC(C)=O)c(OC)c(OC)c(OC(C)=O)c2c1` [2,3,6-trimetoxy-1,4-naphthalenediol diacetate], the “selective inhibition of the viral ribonucleotide reductase over the cellular ribonucleotide reductase” value [1] is reported as “selective inhibition”.

With `COc1c(OC)c(OC(C)=O)c2ccccc2c1OC(C)=O` [2,3-dimethoxy-1,4-1,4-naphthalenediol diacetate] the “selective inhibition of the viral ribonucleotide reductase over the cellular ribonucleotide reductase” value [1] was “selective inhibition”.

`COc1c(OC)c(OC(C)=O)c2cc(Cl)ccc2c1OC(C)=O` [6-Chloro-2,3-dimethoxy-1,4-naphthalenediol diacetate] was tested, and the IC50 [2] was over 250 µM, the “selective inhibition of the viral ribonucleotide reductase over the cellular ribonucleotide reductase” value [1] was “selective inhibition” and the IC50 ([1]; partially purified enzyme 65 μg, 54 μM CDP, 30 minutes at 37° C., pH 7.8, read-out: IC50, fifty percent reduction of the HSV-1 ribonucleotide reductase activity) was 31 µM.
